Assay results reported in publication PMC4183595, “Study on the Main Components Interaction from Flos Lonicerae and Fructus Forsythiae and Their Dissolution In Vitro and Intestinal Absorption in Rats” (PLoS ONE, 2014).
Like-named read-outs stand apart in the source and are kept apart here.

Tests used:
[1] = system: Caco-2 cells; experiment: In vitro Caco-2 monolayer model, apical to basolateral transport (P app); type: in vitro ADME, human; details: Caco-2 monolayer; for P app in product C group, % compared to that in product A group / P app in product C group, % compared with that in product B group: HBSS pH 6.0, apical to basolateral
Experimental: Caco-2 cells were cultured in high glucose DMEM with 10% fetal bovine serum, 1% nonessential amino acids. Cells were cultured in a humidified atmosphere of 5% CO2 at 37°C. After reaching 80% confluens, Caco-2 cells were harvested with 0.05% trypsin-EDTA solution and seeded on top of CC inserts in 6-well plates, which has a surface area of 4.2 cm^2, at a density of 1.0×10^5 cells/cm^2. The protocols for cell culture in Transwell inserts were similar to those described previously.
Hank’s balanced salt solution (HBSS) was used as the transport buffer for the transport study in Caco-2 cells monolayer model. It was prepared by dissolving 9.5 grams of commercial available HBSS powder in 1000 mL water.
Cell culture experiments were described previously. Briefly, after culture medium was aspirated, the cell monolayers were washed three times with blank HBSS. […] The monolayers were incubated with the blank HBSS for 1 h with 37°C. Thereafter the incubation medium was aspirated. Afterwards, a solution containing the compound was loaded onto the apical side. The amounts of transported compound were measured as a function of time. […] The samples were taken at 0, 1, 2, 3 and 4 h after incubation. At the end of the transport experiment, integrity of the monolayer was monitored by TEER value.

[2] = Rat in vivo pharmacokinetics study after oral administration of product A, B or C; parameters: species or system Male Sprague-Dawley (SD) rats; AUC 0→t in product C group, increased to % compared to that in product A or B groups: concentration or dose not given beside the values; details: for AUC(0-t) / AUC(0-inf) / MRT / Tmax / half-life / Cmax: male, Sprague-Dawley, rat, plasma; for AUC(0-t) / AUC(0-inf) / MRT / Tmax / half-life: 10 mL·kg^−1; for AUC(0-t): oral product C group; for AUC(0-inf) / MRT / Tmax / half-life / Cmax: po, 10 mL·kg^−1, rats; for half-life: read-out: T 1/2z; for Cmax: mean±SD; for AUC 0→t in product C group, increased to % compared to that in product A or B groups: product C versus product A or B
Experimental: Product A (extract mixed with FLJ extract and water, (1∶1, v / v )), product B (extract mixed with FF extract and water, (1∶1, v / v )) and product C (extract mixed with FLJ and FF extracts, (1∶1, v / v )) were given to oral administration to rats, respectively.
Male SD rats (∼250 g) were kept in an environmentally controlled breeding room (temperature: 20±2°C, relative humidity: 60±5%) for 1 week. […] The rats were randomly divided into three groups with no less than six rats in each group to receive various administrations at a single oral dose (10 mL·kg^−1) by gastric gavage. […] Subsequently, plasma was prepared by centrifugation at 1,816×g, 4°C for 7 min, and immediately analyzed or stored at −70°C for further analysis.
The main pharmacokinetic parameters including the peak plasma concentration (C max), the time to C max (T max), the AUC from 0 to infinity (AUC 0–∞), the AUC form 0 to time (AUC 0–t), mean residence time (MRT), and terminal elimination half-life (T 1/2z) were calculated by the non-compartmental analysis of plasma concentration vs. time data using the “DAS 2.1.1” software (Mathematical Pharmacology Professional Committee of China, Shanghai, China).

[3] = system: P-gp, MRP2 and BCRP; parameters: method as in PMID 24035225, PMID 25442264; details: previous study; ref [21]–[22]; cited from earlier work
[4] = single oral dose 10 mL·kg^−1 of product A (FLJ extract and water 1:1)
[5] = single oral dose 10 mL·kg^−1 of product C (FLJ and FF extracts 1:1)
[6] = single oral dose 10 mL·kg^−1 of product B (FF extract and water 1:1)

Compound | P app in product C group, % compared to that in product A group [1] | AUC(0-t) ([2]; rats) | AUC(0-inf) ([2]; oral product A) | MRT ([2]; oral product A) | Tmax ([2]; oral product A) | half-life ([2]; oral product A) | AUC(0-inf) ([2]; oral product C) | MRT ([2]; oral product C) | Tmax ([2]; oral product C) | half-life ([2]; oral product C) | Cmax [2, 4] | Cmax [2, 5] | AUC 0→t in product C group, increased to % compared to that in product A or B groups ([2]; rats, oral) | efflux transporters influencing the intestinal absorption [3] | AUC(0-inf) ([2]; oral product B) | MRT ([2]; oral product B) | Tmax ([2]; oral product B) | half-life ([2]; oral product B) | Cmax [2, 6] | P app in product C group, % compared with that in product B group [1] | other results
O=C(C=Cc1ccc(O)c(O)c1)OC1CC(O)(C(=O)O)CC(O)C1OC(=O)C=Cc1ccc(O)c(O)c1 (stereo not shown) [3,4-dicaffeoylquinic acid] | 137% | 24.4 ng·h/mL | 22.9 ng·h/mL | 7.03 h | 0.25 h | 4.92 ± 0.617 h | 38.8 ng·h/mL | 8.95 h | 0.2 h | 6.82 ± 2.38 h | 4.79 ± 1.87 ng/mL | 12.5 ± 4.07 ng/mL | 318% | influenced by P-gp, MRP2 and BCRP |  |  |  |  |  |  | 
O=C(/C=C/c1ccc(O)c(O)c1)O[C@@H]1C[C@](O)(C(=O)O)C[C@@H](OC(=O)/C=C/c2ccc(O)c(O)c2)[C@H]1O [3,5-dicaffeoylquinic acid] | 164% | 82.4 ng·h/mL | 71.5 ng·h/mL | 7.3 h |  | 4.87 ± 1.29 h | 89.7 ng·h/mL | 9.63 h | 0.167 h | 7.33 ± 0.79 h | 27.6 ± 4.73 ng/mL | 30.8 ± 5.66 ng/mL | 162% | influenced by P-gp, MRP2 and BCRP |  |  |  |  |  |  | 
O=C(/C=C/c1ccc(O)c(O)c1)O[C@@H]1C[C@](O)(C(=O)O)C[C@@H](O)[C@H]1O [Chlorogenic acid] | 140% | 1270 ng·h/mL | 707 ng·h/mL | 5.78 h | 0.167 h | 5.37 ± 0.733 h |  | 8.28 h | 0.167 h | 7.68 ± 0.535 h | 367 ± 169 ng/mL | 661 ± 294 ng/mL | 215% | influenced by P-gp, MRP2 and BCRP |  |  |  |  |  |  | 
O=c1cc(-c2ccc(O)c(O)c2)oc2cc(O)cc(O)c12 [Luteolin] | 240% |  | 88.3 ng·h/mL | 5.78 h | 0.167 h | 7.05 ± 0.943 h | 46.9 ng·h/mL | 4.67 h | 0.167 h | 4.42 ± 0.262 h | 44.9 ± 19.8 ng/mL | 19.5 ± 5.43 ng/mL |  |  |  |  |  |  |  |  | AUC 0→t in product C group compared with product A or B group ([2]; rats, oral, same dosages administrated): lower significantly
O=c1cc(-c2ccc(O)c(O)c2)oc2cc(O[C@@H]3O[C@H](CO)[C@@H](O)[C@H](O)[C@H]3O)cc(O)c12 [Luteoloside] | 174% | 4.76 ng·h/mL | 2.97 ng·h/mL |  | 0.167 h | 6.38 ± 0.22 h | 5 ng·h/mL |  | 0.167 h | 9.65 ± 1.43 h | 1.26 ± 0.655 ng/mL | 2.48 ± 1.34 ng/mL | 137% |  |  |  |  |  |  |  | 
COc1cc(C2OCC3C(c4ccc(O[C@@H]5O[C@H](CO)[C@@H](O)[C@H](O)[C@H]5O)c(OC)c4)OCC23)ccc1O (stereo partly drawn) [Pinoresinol-β-D-glucoside] |  | 17.1 ng·h/mL |  |  |  |  | 67.8 ng·h/mL | 7.57 h | 0.167 h | 5.25 ± 0.472 h |  | 32.3 ± 7.57 ng/mL | 299% |  | 32 ng·h/mL | 4.1 h | 0.167 h | 3.37 ± 0.21 h | 11.9 ± 4.36 ng/mL |  | P app, product C group versus product B group [1]: no significant difference
O=c1c(O)c(-c2ccc(O)c(O)c2)oc2cc(O)cc(O)c12 [Quercetin] | 125% |  | 144 ng·h/mL | 8.22 h | 0.167 h | 4.62 ± 0.877 h | 52.4 ng·h/mL | 7.12 h | 0.167 h | 4.67 ± 1.05 h | 15.6 ± 4.39 ng/mL | 8.02 ± 0.493 ng/mL |  |  | 65 ng·h/mL | 7 h | 0.167 h | 5.27 ± 0.93 h | 12.6 ± 2.23 ng/mL | 256% | bioavailability in product C group compared with that in product A group ([2]; rats, oral): opposite; bioavailability in product C group compared with that in product B group ([2]; rats, oral): opposite
O=C(O)[C@]1(O)C[C@@H](O)[C@@H](O)[C@H](O)C1 [Quinic acid] | 301% |  |  | 3.98 h | 0.35 h | 3.82 ± 0.28 h |  | 7.35 h | 0.167 h | 5.5 ± 1.27 h |  |  |  |  |  | 4.5 h | 0.3 h | 4.1 ± 0.628 h | 358 ± 157 ng/mL | 24.0% | bioavailability in product C group compared with that in product A group ([2]; rats, oral): no significant difference; bioavailability in product C group compared with that in product B group ([2]; rats, oral): higher significantly
C[C@@H]1O[C@@H](OC[C@H]2O[C@@H](Oc3c(-c4ccc(O)c(O)c4)oc4cc(O)cc(O)c4c3=O)[C@H](O)[C@@H](O)[C@@H]2O)[C@H](O)[C@H](O)[C@H]1O [Rutin] | 213% |  | 10.3 ng·h/mL | 5.02 h | 0.167 h | 7.93 ± 0.837 h | 22.8 ng·h/mL | 4.88 h | 0.167 h | 7.55 ± 0.613 h | 4.08 ± 1.99 ng/mL | 19.8 ± 3.93 ng/mL |  |  | 30.5 ng·h/mL | 4.35 h |  | 8.17 ± 1.55 h | 14.6 ± 1.65 ng/mL | 210% | bioavailability in product C group compared with that in product A group ([2]; rats, oral): significantly higher; bioavailability in product C group compared with that in product B group ([2]; rats, oral): no significant difference
